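1) Cells in 96-well plates. 2) Compound, 48 h, 5 concentrations. 3) Linear interpolation between surrounding doses. 4) Unreached endpoint = highest concentration. GI50 is the concentration that inhibits growth by half.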 Calls of active or inactive are those of the source. Rule as the data show it: active = GI50 up to about 1.1 µM and inactive = higher.
Columns and labels:
Assay in all cases: NCI tumour cell line growth inhibition, 48 h
OVCAR-8 = tested on: OVCAR-8
SNB-19 = tested on: SNB-19
MDA-MB-435 = tested on: MDA-MB-435
TK-10 = tested on: TK-10
U-251 = tested on: U-251
HT-29 = tested on: HT-29
786-0 = tested on: 786-0
HOP-62 = tested on: HOP-62
KM12 = tested on: KM12
HL-60 = tested on: HL-60
Hs-578T = tested on: Hs-578T
NCI-H226 = tested on: NCI-H226
SF-539 = tested on: SF-539
NCI/ADR-RES = tested on: NCI/ADR-RES
COLO 205 = tested on: COLO 205
RPMI-8226 = tested on: RPMI-8226
UACC-62 = tested on: UACC-62
MDA-MB-231 = tested on: MDA-MB-231
OVCAR-4 = tested on: OVCAR-4
SK-OV-3 = tested on: SK-OV-3
NCI-H23 = tested on: NCI-H23
SW-620 = tested on: SW-620
ACHN = tested on: ACHN
OVCAR-3 = tested on: OVCAR-3
MCF7 = tested on: MCF7
M14 = tested on: M14
UO-31 = tested on: UO-31
UACC-257 = tested on: UACC-257
SK-MEL-28 = tested on: SK-MEL-28
OVCAR-5 = tested on: OVCAR-5
HCC 2998 = tested on: HCC 2998
SN12C = tested on: SN12C
DU-145 = tested on: DU-145
SF-295 = tested on: SF-295
HCT-116 = tested on: HCT-116
RXF 393 = tested on: RXF 393
PC-3 = tested on: PC-3
SK-MEL-5 = tested on: SK-MEL-5
NCI-H460 = tested on: NCI-H460
MOLT-4 = tested on: MOLT-4
SK-MEL-2 = tested on: SK-MEL-2
T47D = tested on: T47D
EKVX = tested on: EKVX
HCT-15 = tested on: HCT-15
Malme-3M = tested on: Malme-3M
A549 = tested on: A549
SF-268 = tested on: SF-268
LOX IMVI = tested on: LOX IMVI
MDA-N = tested on: MDA-N
IGROV-1 = tested on: IGROV-1
SR = tested on: SR
NCI-H522 = tested on: NCI-H522
K562 = tested on: K562
SNB-75 = tested on: SNB-75
HOP-92 = tested on: HOP-92
CCRF-CEM = tested on: CCRF-CEM
CAKI-1 = tested on: CAKI-1
A498 = tested on: A498

Measured: GI50

Nc1ncnc2c1nnn2C1C=CC(CP(=O)(O)O)C1 (stereo unspecified)
> 100 µM: HCT-15
inactive: OVCAR-8 > 100 µM | SNB-19 > 100 µM | MDA-MB-435 > 10 µM | TK-10 > 100 µM | U-251 > 100 µM | HT-29 > 100 µM | 786-0 > 100 µM | HOP-62 > 100 µM | KM12 > 100 µM | HL-60 > 100 µM | Hs-578T > 100 µM | NCI-H226 > 100 µM | SF-539 > 100 µM | NCI/ADR-RES > 100 µM | COLO 205 > 100 µM | RPMI-8226 > 100 µM | UACC-62 > 100 µM | MDA-MB-231 > 100 µM | OVCAR-4 > 100 µM | SK-OV-3 > 100 µM | NCI-H23 > 100 µM | SW-620 > 100 µM | ACHN > 100 µM | OVCAR-3 > 100 µM | MCF7 > 100 µM | M14 > 100 µM | UO-31 > 100 µM | UACC-257 > 100 µM | SK-MEL-28 > 100 µM | OVCAR-5 > 100 µM | HCC 2998 > 100 µM | SN12C > 100 µM | DU-145 > 100 µM | SF-295 > 100 µM | HCT-116 > 100 µM | RXF 393 > 100 µM | PC-3 > 100 µM | SK-MEL-5 > 100 µM | NCI-H460 > 100 µM | MOLT-4 > 100 µM | SK-MEL-2 > 100 µM | T47D > 100 µM | EKVX > 100 µM | Malme-3M > 100 µM | A549 > 100 µM | SF-268 > 100 µM | LOX IMVI > 100 µM | MDA-N > 100 µM | IGROV-1 > 100 µM

C=C(C)CCC1CC=[N+]([O-])OC1C(C)(C)C (stereo unspecified)
26.1 µM: HCT-15
inactive: OVCAR-8 66.5 µM | MDA-MB-435 16.1 µM | SR 36.3 µM | TK-10 > 100 µM | U-251 46.9 µM | HT-29 44.5 µM | 786-0 96.4 µM | HOP-62 79.3 µM | KM12 28.2 µM | HL-60 2.65 µM | Hs-578T 36.6 µM | NCI-H226 15.5 µM | SF-539 72.6 µM | NCI/ADR-RES 27.3 µM | COLO 205 40.1 µM | RPMI-8226 41.3 µM | UACC-62 36.3 µM | MDA-MB-231 26.8 µM | NCI-H522 24.2 µM | SK-OV-3 > 100 µM | SW-620 44.5 µM | K562 > 100 µM | ACHN 68.9 µM | OVCAR-3 66.1 µM | MCF7 15.5 µM | M14 21.1 µM | SNB-75 31.3 µM | UO-31 30.3 µM | UACC-257 58.6 µM | OVCAR-5 > 100 µM | HCC 2998 > 100 µM | SN12C 49.4 µM | DU-145 37.4 µM | SF-295 > 100 µM | HCT-116 21.8 µM | RXF 393 18.2 µM | SK-MEL-5 32.5 µM | NCI-H460 51.8 µM | MOLT-4 39.2 µM | HOP-92 > 100 µM | T47D 20.7 µM | CCRF-CEM 11.4 µM | EKVX 68.2 µM | A549 20.9 µM | SF-268 58.9 µM | CAKI-1 26.2 µM | LOX IMVI 18.5 µM | MDA-N 42.3 µM | IGROV-1 34.6 µM | A498 > 100 µM

— ChEMBL document CHEMBL1201862, “PubChem BioAssay data set” (2004)
